For data set [1], the system named is Cal27CisR. Nature of the data set: Induction of apoptosis in cisplatin resistant human Cal27CisR cells assessed as decrease in BAX expression at 0.316 uM in presence of cisplatin at 16.5 uM preincubated with compound for 24 to 72 hrs prior to addition of cisplatin and measured after 24 hrs by Immunoblotting analysis. Type of data set: functional, cell-based. To be noted: time 48-96 hrs. A general note: A western blot detects proteins with antibodies after separation by electrophoresis.

Data set [2] concerns the target T1, Protein deacetylase HDAC6 (Homo sapiens) (UniProt Q9UBN7).
T1 sequence (whole entry): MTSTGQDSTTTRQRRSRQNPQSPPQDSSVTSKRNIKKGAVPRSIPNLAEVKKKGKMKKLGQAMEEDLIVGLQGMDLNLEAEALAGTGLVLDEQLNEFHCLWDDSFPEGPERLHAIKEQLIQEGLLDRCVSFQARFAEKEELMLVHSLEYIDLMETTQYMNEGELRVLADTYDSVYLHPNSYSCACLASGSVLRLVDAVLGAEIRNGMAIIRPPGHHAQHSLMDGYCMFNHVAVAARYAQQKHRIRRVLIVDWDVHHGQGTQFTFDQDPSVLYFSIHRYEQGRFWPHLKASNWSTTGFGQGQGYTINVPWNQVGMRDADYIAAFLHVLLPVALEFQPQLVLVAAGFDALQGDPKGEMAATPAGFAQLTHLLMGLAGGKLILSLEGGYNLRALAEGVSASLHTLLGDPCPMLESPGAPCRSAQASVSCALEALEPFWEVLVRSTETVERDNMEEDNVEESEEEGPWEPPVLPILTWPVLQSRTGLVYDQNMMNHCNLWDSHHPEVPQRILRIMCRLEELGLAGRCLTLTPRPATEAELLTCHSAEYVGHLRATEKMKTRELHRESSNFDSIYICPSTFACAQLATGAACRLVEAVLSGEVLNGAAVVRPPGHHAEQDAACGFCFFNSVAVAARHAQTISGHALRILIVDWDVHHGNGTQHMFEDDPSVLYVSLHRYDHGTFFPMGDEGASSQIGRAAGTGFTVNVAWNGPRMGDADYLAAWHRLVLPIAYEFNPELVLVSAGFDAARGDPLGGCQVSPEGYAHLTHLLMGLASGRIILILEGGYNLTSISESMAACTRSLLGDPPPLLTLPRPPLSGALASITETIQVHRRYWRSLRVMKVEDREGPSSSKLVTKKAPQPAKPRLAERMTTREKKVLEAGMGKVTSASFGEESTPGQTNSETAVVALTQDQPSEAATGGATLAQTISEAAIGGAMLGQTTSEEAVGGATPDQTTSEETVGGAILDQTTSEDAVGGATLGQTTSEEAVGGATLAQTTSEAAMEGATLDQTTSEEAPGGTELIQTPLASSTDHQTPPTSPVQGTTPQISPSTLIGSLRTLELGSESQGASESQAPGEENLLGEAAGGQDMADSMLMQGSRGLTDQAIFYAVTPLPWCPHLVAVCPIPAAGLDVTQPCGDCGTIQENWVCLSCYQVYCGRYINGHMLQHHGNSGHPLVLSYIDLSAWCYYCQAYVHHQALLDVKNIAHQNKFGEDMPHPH
Nature of the data set: Inhibition of N-terminal GST-tagged full length recombinant human HDAC6 (1 to 1215 end residues) expressed in sf9 cells at > 10 uM using ZMAL (Z-Lys(Ac)-AMC as fluorogenic substrate preincubated with compound for 60 mins followed by substrate addition and measured after 90 mins by fluorescence based microplate reader analysis relative to control. To be noted: time 150.0 min.

Data set [3] relates to Cal27CisR. The experiment in a line: Induction of apoptosis in cisplatin resistant human Cal27CisR cells assessed as decrease in survivin expression at 0.316 uM incubated for 24 to 72 hrs by Immunoblotting analysis. Type of data set: functional, cell-based. To be noted: time 24-72 hrs.
Data set [4] deals with Cal27CisR. Nature of the data set: Induction of apoptosis in cisplatin resistant human Cal27CisR cells assessed as decrease in survivin expression at 0.316 uM in presence of cisplatin at 16.5 uM preincubated with compound for 24 to 72 hrs prior to addition of cisplatin and measured after 24 hrs by Immunoblotting analysis. Type of data set: functional, cell-based. To be noted: time 48-96 hrs.

Data set [5] in a line: Lipophilicity, logD of the compound in 1-octanol/PBS buffer at pH 7.4 by HPLC/UV analysis. Type of data set: physicochemical. To be noted: 1-octanol/PBS buffer, read-out: logD.
Data set [6] deals with Cal27CisR. The experiment in a line: Induction of apoptosis in cisplatin resistant human Cal27CisR cells assessed as decrease in BIM expression at 0.316 uM in presence of cisplatin at 16.5 uM preincubated with compound for 24 to 72 hrs prior to addition of cisplatin and measured after 24 hrs by Immunoblotting analysis. Type of data set: functional, cell-based. To be noted: time 48-96 hrs.

The test system of data set [7] is Cal27CisR. The experiment in a line: Induction of apoptosis in cisplatin resistant human Cal27CisR cells assessed as decrease in BIM expression at 0.316 uM incubated for 24 to 72 hrs by Immunoblotting analysis. To be noted: time 24-72 hrs. Type of data set: functional, cell-based.
Data set [8] relates to Cal27CisR. The experiment in a line: Induction of apoptosis in cisplatin resistant human Cal27CisR cells assessed as decrease in Bcl-2 expression at 0.316 uM in presence of cisplatin at 16.5 uM preincubated with compound for 24 to 72 hrs prior to addition of cisplatin and measured after 24 hrs by Immunoblotting analysis. To be noted: time 48-96 hrs. Type of data set: functional, cell-based.

The subject of data set [9] is Cal27CisR. Nature of the data set: Induction of apoptosis in cisplatin resistant human Cal27CisR cells assessed as decrease in BAX expression at 0.316 uM incubated for 24 to 72 hrs by Immunoblotting analysis. Type of data set: functional, cell-based. To be noted: time 24-72 hrs.
Data set [10] deals with Cal27CisR. Nature of the data set: Induction of apoptosis in cisplatin resistant human Cal27CisR cells assessed as decrease in Bcl-2 expression at 0.316 uM incubated for 24 to 72 hrs by Immunoblotting analysis. To be noted: time 24-72 hrs. Type of data set: functional, cell-based.
The next data set has as its system A2780cisR. Nature of the data set: Effect of Bcl-2 protein level in cisplatin resistant human A2780 cisR cells at 2 uM incubated for 48 hrs by Immunoblotting analysis. Type of data set: functional, cell-based.
For another data set, the system named is A2780. Nature of the data set: Effect of Bcl-2 protein level in human A2780 cells at 0.75 uM incubated for 48 hrs by Immunoblotting analysis. Type of data set: functional, cell-based.
The target in data set [11] is T1, Protein deacetylase HDAC6 (Homo sapiens). Nature of the data set: Inhibition of N-terminal GST-tagged full length recombinant human HDAC6 (1 to 1215 end residues) expressed in sf9 cells at > 3.33 uM using ZMAL (Z-Lys(Ac)-AMC as fluorogenic substrate preincubated with compound for 60 mins followed by substrate addition and measured after 90 mins by fluorescence based microplate reader analysis relative to control.

Activity calls are given as the source filed them. The calls are words filed in the database; no cut-off is given here.

As for `CCCNNC(=O)c1ccc(CN(CC(=O)NCc2ccccc2)C(=O)c2ccc(N(C)C)cc2)cc1`, the outcome in the data set on Cal27CisR [1], in the data set with Cal27CisR [4], with Cal27CisR [6] and with Cal27CisR [8] was Active. In addition, the inhibition (usually the percentage by which the read-out fell short of the control) in data set [2] is < 25%. For the same compound, the result with Cal27CisR [3], in the data set with Cal27CisR [7], in the data set with Cal27CisR [9] and in the data set with Cal27CisR [10] was inactive. Moreover, in data set [5], the logD (usually lipophilicity at a set pH, counting ionised and neutral species) came out at 3.76.

`CCCCNNC(=O)c1ccc(CN(CC(=O)NCc2ccccc2)C(=O)c2ccc(N(C)C)cc2)cc1`: the result in the data set on A2780cisR and in the data set with A2780 was inactive. In [11], the inhibition was < 25%.

Source of the values: ChEMBL document CHEMBL6120974, “Hydrazide-Based Class I Selective HDAC Inhibitors Completely Reverse Chemoresistance Synergistically in Platinum-Resistant Solid Cancer Cells” (J Med Chem, 2024).
